Results taken from patent publication US20260365732A1, “METHODS OF TREATING CANCER IN SUBJECTS WITH PRIOR IMMUNE CHECKPOINT INHIBITOR EXPOSURE” (Curis, Inc., priority 2023, published 2026).

Tests used:
[1] = Study Compound 1-101 (safety, drug exposure, biologic activity and clinical efficacy at 200 mg BID); type: in vivo, human
Source text: Three patients with AML or MDS will be enrolled at the designated dose. If none of the first 3 patients experience a dose-limiting toxicity during the first cycle, patients may be enrolled into the next higher dose level. If 1 patient out of the first 3 experiences a dose-limiting toxicity, the dose level may be expanded with an additional 3 patients.

bone marrow (BM) blasts = experiment: Clinical study of emavusertib (Compound 1) on bone marrow (BM) blasts in AML / hrMDS patients with vs without prior immune checkpoint inhibitor exposure (FIG. 1A, FIG. 1B); type: in vivo, human
Source text: FIG. 1A is a graph showing the results of a clinical study for the efficacy of emavusertib (Compound 1) administration on reducing bone marrow (BM) blasts in patients with blood cancer. Blasts are immature white blood cells that are usually found in small numbers in healthy bone marrow. High levels of blasts circulating in the blood are associated with cancer. This clinical study measured the change in blast levels before and after receiving Compound 1 treatment. Here, the relative change in blast levels before and after Compound 1 is compared between patients who had previously received immune checkpoint inhibitors in prior treatment and patients who were naïve to immune checkpoint inhibitors. The comparison groups each contain at least 5 high risk myelodysplastic syndrome (hrMDS) patients and 1 acute myeloid leukemia (AML) patient.
FIG. 1B is a graph showing baseline and best post-treatment blast levels of the subjects in FIG. 1A. […] Each patient is shaded according to their diagnosis.
To support the development of effective treatment regimens with Compound 1, a study was conducted to monitor bone marrow (BM) samples obtained from AML and high risk MDS patients with different prior histories of treatment. […] The present disclosure relates to methods of treating cancer with Compound 1 and other IRAK4 inhibitors or degraders, wherein the subject has a history of treatment with an immune checkpoint inhibitor.
This is a Phase 1, open-label dose escalation and cohort expansion study of Compound 1 as a monotherapy in patients with AML or MDS and in combination with AZA in treatment-naïve, adult patients with AML or hrMDS or in combination with VEN in patients with relapsed/refractory AML or hrMDS, after first line therapy.

Compound: Cc1cc(-c2nc(C(=O)Nc3cc4oc(N5CCOCC5)nc4nc3N3CC[C@@H](O)C3)co2)ccn1 [Compound 1, emavusertib]
- biologic activity and clinical efficacy [1]: signs of biologic activity and clinical efficacy
- safety of starting dose level [1]: safe
- rate of response, as evidenced by reduced BM blast counts in hematology (bone marrow (BM) blasts; AML and high risk MDS patients, history of treatment with an immune checkpoint inhibitor vs no prior exposure): higher rate of response
- relative change in blast levels before and after Compound 1 (bone marrow (BM) blasts; patients with prior immune checkpoint inhibitors (magrolimab, ipilimumab, or nivolumab + ipilimumab) vs not previously exposed, each group at least 5 hrMDS and 1 AML patient, FIG. 1A): significant reduction in blasts
- change in bone marrow blast counts from baseline to best post-baseline (bone marrow (BM) blasts; prior immune checkpoint inhibitor exposure compared to no prior exposure, FIG. 1B): higher decreases in bone marrow blast counts
- baseline vs best post-baseline bone marrow blasts counts (bone marrow (BM) blasts; prior immune checkpoint inhibitor exposure vs without exposure, FIG. 1A): significant difference
